Laboratory results taken from paper PMC7248897, “Synthesis, Biological Evaluation and In Silico Studies of Certain Oxindole–Indole Conjugates as Anticancer CDK Inhibitors” (Molecules, 2020).
Entries after “also recorded” stand apart in the source; their conditions may differ. Read-outs that look alike come from different tables or passages of the source.

Tests used:
CDK9 = CDK9 (Homo sapiens, UniProt P50750); experiment: CDK9 kinase inhibition (Reaction Biology HotSpot); conditions: read-out: % Enzyme Inhibitory Activity CDK9
Chain of CDK9 (P50750 whole entry): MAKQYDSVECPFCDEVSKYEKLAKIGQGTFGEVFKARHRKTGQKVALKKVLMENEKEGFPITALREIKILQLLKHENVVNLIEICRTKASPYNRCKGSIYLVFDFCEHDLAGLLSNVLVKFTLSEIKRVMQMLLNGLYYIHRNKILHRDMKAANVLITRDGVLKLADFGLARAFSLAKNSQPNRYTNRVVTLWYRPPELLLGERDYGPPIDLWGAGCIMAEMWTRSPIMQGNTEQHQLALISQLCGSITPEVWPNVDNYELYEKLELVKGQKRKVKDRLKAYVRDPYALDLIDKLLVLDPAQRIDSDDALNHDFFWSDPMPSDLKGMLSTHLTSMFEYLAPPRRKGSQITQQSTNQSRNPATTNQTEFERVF
Chain of CDK9 (O60563 whole entry partner): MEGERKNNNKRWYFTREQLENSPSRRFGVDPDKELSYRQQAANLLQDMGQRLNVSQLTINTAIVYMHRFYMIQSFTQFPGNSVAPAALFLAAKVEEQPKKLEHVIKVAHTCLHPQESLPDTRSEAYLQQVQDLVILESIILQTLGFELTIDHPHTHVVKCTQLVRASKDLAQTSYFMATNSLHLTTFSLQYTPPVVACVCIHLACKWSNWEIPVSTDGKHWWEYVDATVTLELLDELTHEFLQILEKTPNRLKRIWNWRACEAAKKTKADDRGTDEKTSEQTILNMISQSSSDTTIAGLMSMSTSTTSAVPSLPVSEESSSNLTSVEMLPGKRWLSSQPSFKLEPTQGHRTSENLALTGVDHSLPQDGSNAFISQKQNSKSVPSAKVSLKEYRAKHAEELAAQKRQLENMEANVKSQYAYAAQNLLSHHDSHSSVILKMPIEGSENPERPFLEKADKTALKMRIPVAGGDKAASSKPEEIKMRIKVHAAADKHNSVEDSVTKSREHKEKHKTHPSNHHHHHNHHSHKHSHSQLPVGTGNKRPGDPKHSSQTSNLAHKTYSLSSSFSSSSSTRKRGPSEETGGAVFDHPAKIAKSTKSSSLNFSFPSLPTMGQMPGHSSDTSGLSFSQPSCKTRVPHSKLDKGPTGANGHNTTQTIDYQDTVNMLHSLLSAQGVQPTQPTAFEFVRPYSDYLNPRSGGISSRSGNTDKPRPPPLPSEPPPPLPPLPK
Experimental: The in vitro CDK kinase inhibition assay was performed by Reaction Biology Corp. (PA, USA) (http://www.reactionbiology.com) Kinase HotSpotSM service.
Reaction Biology Corp. Kinase HotSpotSM service (http://www.reactionbiology.com)
was used for screening of tested compounds. CDK Kinase inhibitory activities were
assessed by the HotSpot assay platform, which contained specific kinase/substrate pairs
along with required cofactors. Base reaction buffer: 20 mM Hepes (pH 7.5), 10 mM MgCl2,
Testing compounds were dissolved in 100% DMSO to specific concentration. The serial
dilution was conducted by Integra Viaflo Assist in DMSO. The reaction mixture containing the examined compound and 33P-ATP was incubated at room temperature for
2 h and radioactivity was detected by filter-binding method. Kinase activity data were
expressed as the percent remaining kinase activity in test samples compared to vehicle

CDK4 = molecular target: T1, CDK4 (Homo sapiens, UniProt P11802); experiment: CDK4 kinase inhibition (Reaction Biology HotSpot); assay type: biochemical; conditions: for inhibition at 20 µM: single dose of 20 µM
T1 construct: purchased Reaction Biology Corp. (Kinase HotSpot service)
T1 sequence (P11802 whole entry): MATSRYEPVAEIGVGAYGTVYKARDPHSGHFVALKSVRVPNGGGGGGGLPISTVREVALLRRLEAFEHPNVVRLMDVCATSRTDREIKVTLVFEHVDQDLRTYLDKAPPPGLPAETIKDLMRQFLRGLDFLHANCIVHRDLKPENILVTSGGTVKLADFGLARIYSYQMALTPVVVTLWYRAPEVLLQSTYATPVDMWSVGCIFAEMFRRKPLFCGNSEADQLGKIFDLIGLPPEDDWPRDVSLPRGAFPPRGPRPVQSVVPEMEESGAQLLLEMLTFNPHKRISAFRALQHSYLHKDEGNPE
T1 sequence (P24385 whole entry partner): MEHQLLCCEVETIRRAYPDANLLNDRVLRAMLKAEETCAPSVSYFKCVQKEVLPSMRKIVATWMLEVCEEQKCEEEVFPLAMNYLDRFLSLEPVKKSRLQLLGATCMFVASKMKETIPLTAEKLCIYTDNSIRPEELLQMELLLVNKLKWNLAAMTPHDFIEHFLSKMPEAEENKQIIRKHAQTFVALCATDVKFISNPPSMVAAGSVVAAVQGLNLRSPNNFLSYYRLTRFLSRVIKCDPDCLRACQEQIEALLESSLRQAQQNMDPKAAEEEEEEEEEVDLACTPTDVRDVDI
From the text: (§1) 5. CDK Kinase Inhibitory Activity
(§2) along with required cofactors.
(§3) Kinase activity data were
(§4) (dimethyl sulfoxide) reactions.

[1] = tested on: MDA-MB-231 breast cancer cell line; experiment: SRB anti-proliferative assay, MDA-MB-231; assay type: cell-based, human; conditions: for IC50 / IC50 MDA-MB-231: mean ± S.D. from 3 separate experiments
Experimental: (§5) Cytotoxicity was assessed following the SRB colorimetric assay protocol, as reported earlier.
(§6) 1. Anti-proliferative action toward human breast cell lines […]
(§7) have been obtained from American Type Culture Collection (ATCC). The cells were maintained in Dulbecco's modified Eagle's medium (DMEM) supplemented with 10% heat inactivated fetal calf serum (GIBCO), penicillin (100 U/ml) and streptomycin (100 µg/ml) at 37 °C in humidified atmosphere containing 5% CO2. Cells at a concentration of […]
(§8) The anti-proliferative activity of the tested hybrids 6a-i, 9a-f and 11a, b was measured in vitro using the Sulfo-Rhodamine-B stain (SRB) assay. Briefly, Cells were inoculated in 96-well microtiter plate (5X104 cells/ well) for 24 h before treatment with the tested compounds to allow attachment of cell to the wall of the plate. Tested compounds were dissolved in DMSO at 1 mg/ml immediately before use and diluted to the appropriate volume just before addition to the cell culture. Different concentrations of tested compounds, doxorubicin and sorafenib were added to the cells (three wells were prepared for each individual dose). Cells were incubated with the compounds for 48 h at 37°C and in atmosphere of 5% CO2. After 48 h cells were fixed, washed, and stained for 30 min with 0.4% (w/v) SRB dissolved in 1% acetic acid. Unbound dye was removed by four washes with 1% acetic acid, and attached stain was recovered with Tris-EDTA buffer.
(§9) Color intensity was measured in an ELISA reader. […]

[2] = tested on: MCF-7 breast cancer cell line; experiment: SRB anti-proliferative assay, MCF-7; assay type: cell-based, human; conditions: for IC50: Homo sapiens, read-out: IC50 MCF-7
Experimental: as §5, §6, §7, §8, §9

CDK2 = molecular target: T2, CDK2 (Homo sapiens, UniProt P24941); experiment: CDK2 kinase inhibition (Reaction Biology HotSpot); assay type: biochemical; conditions: single dose of 20 µM; read-out: % Enzyme Inhibitory Activity CDK2
T2 construct: purchased Reaction Biology Corp. (Kinase HotSpot service)
From the text: as §1, §2, §3, §4

[3] = Homo sapiens, MDA-MB-231, SRB assay, 48 h, read-out: IC50 MDA-MB-231
[4] = MCF7, SRB assay, 48 h, mean ± S.D. from 3 separate experiments
[5] = Homo sapiens, MDA-MB-231, 48 h, read-out: IC50 MDA-MB-231, SRB assay, 48 h
[6] = SRB assay, 48 h, mean ± S.D. from 3 separate experiments

Row | SMILES | inhibition at 20 µM (CDK9) [%] | inhibition at 20 µM (CDK4) [%] | IC50 [1, 3] [µM] | IC50 [2, 4] [µM] | inhibition at 20 µM (CDK2) [%] | other results
1 | O=C1Nc2ccc(Cl)cc2/C1=N/NC(=O)c1cc2ccccc2[nH]1 [6c] | 11 | 28 | 9.48 ± 0.44 | 2.72 ± 0.17 | ≥ 50 | 
2 | O=C1Nc2ccc([N+](=O)[O-])cc2/C1=N/NC(=O)c1cc2ccccc2[nH]1 [6h] | 10 | 46 | 1.85 ± 0.07 | 21.4 ± 1.58 | ≥ 50 | fold potency compared to staurosporine ([1]; MDA-MB-231, ratio of IC50 values): 5.56 fold
3 | O=C(N/N=C1\C(=O)N(Cc2ccccc2)c2ccccc21)c1cc2ccccc2[nH]1 [9d] |  |  |  |  |  | IC50 [1, 5]: 6.5 ± 0.39 µM; IC50 ([2]; MCF7, 48 h): 9.56 ± 0.61 µM
4 | CN[C@@H]1C[C@H]2O[C@@](C)([C@@H]1OC)n1c3ccccc3c3c4c(c5c6ccccc6n2c5c31)C(=O)NC4 [Staurosporine, reference compound] | 98 |  |  |  |  | 
5 | O=C1Nc2ccccc2/C1=N/NC(=O)c1cc2ccccc2[nH]1 [6a] | 20 | 92 | 15.1 ± 0.73 | 3.12 ± 0.14 | 78 | IC50 (CDK4): 1.82 µM
6 | O=C(N/N=C1\C(=O)N(Cc2ccc(F)cc2)c2ccccc21)c1cc2ccccc2[nH]1 [9e] | 9 | 12 |  |  | 5 | IC50 [1, 5]: 1.03 ± 0.04 µM; IC50 ([2]; MCF7, 48 h): 3.7 ± 0.19 µM
7 | O=C1Nc2ccc(F)cc2/C1=N/NC(=O)c1cc2ccccc2[nH]1 [6b] | 7 | 33 | 6.36 ± 0.29 | 6 ± 0.32 | 48 | 
8 | Cc1cc(C)c2c(c1)/C(=N/NC(=O)c1cc3ccccc3[nH]1)C(=O)N2 [6i] |  |  | > 100 | 47.2 ± 3.02 |  | IC50 MDA-MB-231 ([1]; SRB assay, 48 h): no activity
9 | O=C(NN=C1Cc2ccccc2C1)c1cc2ccccc2[nH]1 [11a] |  |  | > 100 | 84.7 ± 4.02 |  | IC50 MDA-MB-231 ([1]; SRB assay, 48 h): no activity; also recorded: did not exert any significant anti-proliferative action; IC50 MCF-7 [2, 6]: did not exert any significant anti-proliferative action
10 | CN1C(=O)/C(=N\NC(=O)c2cc3ccccc3[nH]2)c2ccccc21 [9a] | 13 | 20 | 8.39 ± 0.27 | 5.5 ± 0.28 | 41 | 
11 | O=C(N/N=C1\CCCc2ccccc21)c1cc2ccccc2[nH]1 [11b] |  |  | > 100 | > 100 |  | IC50 MDA-MB-231 ([1]; SRB assay, 48 h): no activity; also recorded: did not exert any significant anti-proliferative action; IC50 MCF-7 [2, 6]: did not exert any significant anti-proliferative action
12 | CCOC(=O)CN1C(=O)/C(=N\NC(=O)c2cc3ccccc3[nH]2)c2ccccc21 [9c] |  |  | > 100 | 67.5 ± 3.02 |  | IC50 MDA-MB-231 ([1]; SRB assay, 48 h): no anti-proliferative activity
13 | O=C1Nc2ccc(OC(F)(F)F)cc2/C1=N/NC(=O)c1cc2ccccc2[nH]1 [6g] | 4 | 19 | 7.19 ± 0.38 | 5.07 ± 0.21 | 14 | 
14 | CCCN1C(=O)/C(=N\NC(=O)c2cc3ccccc3[nH]2)c2cc(Cl)ccc21 [9f] |  |  |  |  |  | IC50 [1, 5]: 9.44 ± 0.35 µM; IC50 ([2]; MCF7, 48 h): 19.3 ± 0.65 µM
15 | CCCN1C(=O)/C(=N\NC(=O)c2cc3ccccc3[nH]2)c2ccccc21 [9b] |  |  |  |  |  | IC50 [1, 5]: 18.2 ± 0.85 µM; IC50 ([1]; read-out: IC50 MDA-MB-231, SRB assay, 48 h): 18.5 ± 0.85 µM; IC50 ([2]; MCF7, 48 h): 40.9 ± 3.17 µM
16 | O=C1Nc2ccc(Br)cc2/C1=N/NC(=O)c1cc2ccccc2[nH]1 [6d] | 32 | 43 | 18.3 ± 0.71 | 3.31 ± 0.11 | 85 | 
